Patent US6855536B2, “Materials and methods for the enhancement of effective root nodulation in legumes” (priority 2000, dated 2005)
Entries after “also recorded” stand apart in the source; their conditions may differ.

Columns and labels:
nolA-lacZ fusion = test: nolA-lacZ (nolA1,2,3-lacZ) fusion β-galactosidase assay in B. japonicum; format: cell-based, Bradyrhizobium japonicum; details: for Induction of nolA expression (in words): B. japonicum harboring nolA-lacZ fusion
Procedure: (§1) Bacterial Stains, plasmids and culture conditions. For routine bacterial growth, B. japonicum cells were maintained on RDY medium (So, J. -S. et al. [1987] Mol. Gen. Genet. 207:15-23). Bacteria were grown in minimal medium (Bergensen, F. J. [1961] Aust. J. Biol. Sci. 14:349-360) for β-galactosidase activity. As required, antibiotics were used at the following concentrations, Cm (30 μg/ml), Sm (100 μg/ml), Sp (100 μg/ml), Tc (100 μg/ml). The B. japonicum strains used in this study were Bj110-42, BJAlac12, BJAlac23, BJAlac13 and BJ110-1248-1, ZB977, SL101 and Bj110-573. These strains harbored the following translational fusions; BJ110-1248-1 (nodD2-lacZ, plasmid pRJ1248, Dockendorff et al. [1994] Mol. Plant-Microbe Interact. 7:596-602), ZB977 (nodY-lacZ, plasmid pZB32, Banfalvi et al. [1988] Mol. Gen. Genet. 214:420-424), SL101 (npt-lacZ, Yuen, J. P.-Y and G. Stacey [1996] Mol. Plant-Microbe Interact. 9:424-428), and Bj110-573 (nodC-lacZ, chromosomally integrated fusion, Dockendorff et al. [1994] Mol. Plant-Microbe Interact 7:596-602). Strains Bj110-42, BJAlac23, BJAlac12, BJAlac13 harbored nolA-lacZ translational fusions encoded on plasmids pBGALac1, pNMAlac23, pNMAlac13, pNMAlac12 respectively (Garcia et al. [1996] Mol. Plant-Microbe Interact. 9:625-635; Loh et al. [1999] J. Bacteriol. 181:1544-1554). Plasmid pNMAlac23 contained mutations to ATG2 and ATG3 of nolA and allowed the specific expression of NolA1-lacZ. In contrast, plasmids pNMAlac13 (mutations to ATG1 and ATG3) and pNMAlac12 (mutation to ATG1 and ATG3, Loh et al. [1999] J. Bacteriol. 181:1544-1554) only expressed NolA2-lacZ and NolA3-lacZ, respectively.
Typically, B. japonicum cells are found in high population density in commercial inoculants. To determine if the bacterial nolA inducer was present in commercial inoculant, three soybean inoculants from two commercially available sources were extracted with butanol, and these extracts analyzed for their ability to induce the nolA-lacZ fusions.
As shown in Tables 2-3 and FIG. 11C, an inducer of nolA-lacZ and nodD2-lacZ expression was detected in conditioned medium from B. japonicum cultures grown to a high population density. […] The nolA inducer present in the conditioned medium was lost after dialysis using a membrane with a cutoff at 3 kDa (Fisher Scientific, Pittsburgh, Pa.).

nodY-lacZ = nodY-lacZ fusion induction by genistein in B. japonicum; format: cell-based, Bradyrhizobium japonicum; details: for Effect on nodY-lacZ expression: 0.025 μM genistein for five hours, with or without 500 μM FeCl3
Procedure: as §1
This view is supported experimentally by the following two results.
The levels of nod gene expression were also found to be affected by IND-1.

CDF production = CDF production in B. japonicum cultures grown with iron; format: cell-based, Bradyrhizobium japonicum; details: Fe^3+ added to B. japonicum cultures
NolA1-lacZ = NolA1-lacZ fusion β-galactosidase assay in B. japonicum; format: cell-based, Bradyrhizobium japonicum; details: NolA3-lacZ fusions compared
Procedure: as §1, with “Strains Bj110-42, BJAlac23, BJAlac12, BJAlac13 harbored nolA-lacZ translational fusions encoded on plasmids pBGALac1, pNMAlac23, pNMAlac13, pNMAlac12 respectively (Garcia et al. [1996] Mol. Plant-Microbe Interact. 9:625-635; Loh et al. [1999] J. Bacteriol. 181:1544-1554). Plasmid pNMAlac23 contained mutations to ATG2 and ATG3 of nolA and allowed the specific expression of NolA1-lacZ. In contrast, plasmids pNMAlac13 (mutations to ATG1 and ATG3) and pNMAlac12 (mutation to ATG1 and ATG3, Loh et al. [1999] J. Bacteriol. 181:1544-1554) only expressed NolA2-lacZ and NolA3-lacZ, respectively.” left out
As shown in Tables 2-3 and FIG. 11C, an inducer of nolA-lacZ and nodD2-lacZ expression was detected in conditioned medium from B. japonicum cultures grown to a high population density. […]

[1] = tested on: nodulation of soybean by B. japonicum; test: Soybean nodulation plant test in growth pouches; format: in vivo, Glycine max; details: for Effect on nodulation of soybean (in words): B. japonicum cells pretreated 1 h, 10^7 cells per root, nodules counted 21 days post-inoculation
Procedure: The significance of nod gene repression by both IND-1 and the quorum factor was also investigated in plant tests. Seeds of Glycine maxcv Essex were surface sterilized, placed in sterile growth pouches (Mega International, MN) and cultivated as described by Nieuwkoop et al. (Nieuwkoop et al. [1987] J. Bacteriol. 169:2631-2638). Each seedling was inoculated with 10^7 B. japonicum cells. Prior to inoculation of the roots, B. japonicum cells were incubated for 1 h with concentrated, conditioned medium that had been sterilized by filtration through a […] filter (Millipore, Bedford, Mass.). The conditioned medium was used at a final concentration of 10 μl per 1 ml of culture. At the time of inoculation, the location of the root tip was marked on the outside of the plastic growth pouch. Plants were watered with nitrogen free nutrient solution (Wacek and Brill [1976] Crop Sci. 15:519-523). At 21 days post-inoculation, the number of nodules on each root both above and below the root tip mark was recorded.

[2] = tested on: nodule occupancy by the NwsB mutant; test: Nodule occupancy competition assay, NwsB mutant versus wild-type; format: in vivo, Glycine max; details: 25 μM BEHP; NwsB mutant and USDA110 at different ratios; 21 days post inoculation
Procedure: Different ratios of B. japonicum USDA110 and B. japonicum NwsB mutant were innoculated on soybean plants grown in growth pouches. At the time of innoculation, the root tip (RT) mark was noted on the outside of the pouches. Nodules were extracted 21 days post innoculation and the extracts were plated on RDY plates. Single colonies were picked and tested for streptomycin resistance (a marker for the NwsB mutant). (A) is above RT at time of innoculation; (B) below RT at time of innoculation.
We have generated, by recombinant means, mutations in the nwsB gene. The NwsB mutant appears to be defective in the recognition of the quorum signal and we have performed plant tests with the mutant in competition assays with the wild-type bacteria. In these assays, the effect of IND-1 (BEHP) on the ability of the NwsB mutant to nodulate soybean in the presence of wild-type bacteria (at different cell ratios) was examined. […] Nodule occupancy was scored both above (treated area) and below (new root growth) the root tip mark at the time of inoculation. […] These studies were conducted using 25 μM levels of BEHP.

nodC-lacZ = nodC-lacZ fusion induction by genistein in B. japonicum Bj110-573; format: cell-based, Bradyrhizobium japonicum; details: 0.025 μM genistein, 5 hours; cells harvested at high population densities (A600=1.62 or 3.22)
Procedure: as §1, with “Plasmid pNMAlac23 contained mutations to ATG2 and ATG3 of nolA and allowed the specific expression of NolA1-lacZ. In contrast, plasmids pNMAlac13 (mutations to ATG1 and ATG3) and pNMAlac12 (mutation to ATG1 and ATG3, Loh et al. [1999] J. Bacteriol. 181:1544-1554) only expressed NolA2-lacZ and NolA3-lacZ, respectively.” left out

[3] = listed as phthalic acid bis-(2-ethyl-hexyl) ester

With `[Cl][Fe]([Cl])[Cl]` [Fe^3+, FeCl3] the “Effect on nolA expression at high culture densities” value (nolA-lacZ fusion; increasing concentrations of FeCl3 for five hours) was “significantly reduced the expression of nolA expression”, the “Effect on nodY-lacZ expression” value (nodY-lacZ) was “corresponding increase in nodY-lacZ expression” and the “Effect on nodY-lacZ expression” value (nodY-lacZ; listed as FeCl3) was “increase in the expression of a nodY-lacZ fusion protein”. For the same compound, the “Effect on CDF production” value (CDF production) was “inhibit CDF production”.

For `CCCCC(CC)COC(=O)c1ccccc1C(=O)OCC(CC)CCCC` (stereo not shown) [IND-1, phthalic acid bis-(2-ethyl-hexyl) ester], the “Induction of nolA expression (in words)” value (nolA-lacZ fusion) was “active on B. japonicum nolA-lacZ fusions; also recorded: capable of inducing nolA”, the “Induction of nolA expression (in words)” value (nolA-lacZ fusion; [3]) was “potent inducer of nolA; also recorded: strong inducer of NolA expression” and the “Which NolA form is affected (NolA1, NolA2, NolA3)” value (NolA1-lacZ) was “affect only NolA1 expression”. For the same compound, the “Effect on nod gene (nodY-lacZ) induction by genistein (in words)” value (nodY-lacZ; B. japonicum at low population density, IND-1 in USDA110, USDA76, USDA31) was “reduced nodY-lacZ induction by genistein”, the “Effect on nodulation of soybean (in words)” value [1] was “reduced nodulation efficiency” and the “Effect on nodulation of soybean (in words)” value [1, 3] was “inhibits nodulation”. For the same compound, the “Nodule phenotype in the presence of BEHP” value ([1]; UV treated USDA61 A2 73 cells inoculated onto soybean roots) was “delayed nodule phenotype” and the “Percentage of nodules occupied by the NwsB mutant” value [2] was “increase the percentage of nodules that were occupied by the NwsB mutant”.

In the case of `O=c1c(-c2ccc(O)cc2)coc2cc(O)ccc12` [daidzein, reference compound], the “Induction of nolA expression (in words)” value (nolA-lacZ fusion) is reported as “failed to induced nolA expression”.

`O=c1c(-c2ccc(O)cc2)coc2cc(O)cc(O)c12` [genistein, reference compound] was tested, and the “Induction of nolA expression (in words)” value (nolA-lacZ fusion) was “failed to induced nolA expression”, the “Induction of nodY-lacZ, β-galactosidase activity” value (nodY-lacZ; 0.05 μM genistein for 5 h, with or without CM (A600 = 1.0), CPRG substrate, mean of two ± SD) was 366 ± 11 U and the “nodC-lacZ induction by genistein” value (nodC-lacZ) was “Little or no nodC induction”.
